Measurements as given in ChEMBL document CHEMBL1125373, “Systemic analgesic activity and delta-opioid selectivity in [2,6-dimethyl-Tyr1,D-Pen2,D-Pen5]enkephalin” (J Med Chem, 1992).
pEC50: −log10 of the molar value.

Key:
Assay type in all cases: functional
[1] = organism: Mus musculus; assay: In Vitro evaluation for the potency for inhibiting the contraction of the electrically stimulated isolated mouse vas deferens
[2] = tested on: Mus musculus; assay: In vivo antinociceptive activity in mice by using hot plate test after subcutaneous administration; conditions: sc
[3] = tested on: Mus musculus; assay: In vivo antinociceptive activity in mice by using PBQ writing test after subcutaneous administration; conditions: sc
[4] = tested on: Mus musculus; assay: In vivo antinociceptive activity in mice by using hot plate test after intracerebroventricular administration

SMILES | pEC50 [1] | ED50 [2] [mg/kg] | ED50 [3] [mg/kg] | ED50 [4] [µg]
Cc1cc(O)cc(C)c1C[C@H](N)C(=O)N[C@H]1C(=O)NCC(=O)N[C@@H](Cc2ccccc2)C(=O)N[C@@H](C(=O)O)C(C)(C)SSC1(C)C [listing 1 of 2 here] | 9.82 | – | – | –
Cc1cc(O)cc(C)c1C[C@H](N)C(=O)N[C@H]1C(=O)NCC(=O)N[C@@H](Cc2ccccc2)C(=O)N[C@@H](C(=O)O)C(C)(C)SSC1(C)C [listing 2 of 2 here] | – | 33 | 2.6 | 0.2
CC1(C)SSC(C)(C)[C@@H](NC(=O)[C@@H](N)Cc2ccc(O)cc2)C(=O)NCC(=O)N[C@@H](Cc2ccccc2)C(=O)N[C@H]1C(=O)O | 7.89 | – | – | 1.4
CN1CC[C@]23c4c5ccc(O)c4O[C@H]2[C@@H](O)C=C[C@H]3[C@H]1C5 [MORPHINE] | – | 3.2 | 0.2 | 0.6
